The source of these data is PMC9144915, “Indole Alkaloids and Chromones from the Stem Bark of Cassia alata and Their Antiviral Activities” (Molecules, 2022).

≈ marks a conversion by molar mass, not a printed value. Where two headings read alike, the source gives them in different places.

As a reminder, the IC50 is the concentration that inhibits the measured activity by half. Usually inhibition stands for the relative decrease from the control value, in per cent. Usually CC50 stands for the concentration giving 50% cytotoxicity. In general, EC50 refers to the midpoint of the concentration-response curve.

The subject of data set [1] is tobacco mosaic virus (TMV). As to the kind of experiment: Anti-TMV activity, half-leaf method. It counts as in vivo. The note with it: in Nicotiana glutinosa; for inhibition at 20 µM: read-out: % Inhibition at 20 µM. Here is the method: The anti-TMV activities were tested using the half-leaf method according to our previous studies, and Ningnanmycin (C16H23O8N7, CAS No. 156410-09-2), a commercial cytosine nucleoside peptide type antibiotics for plant disease in China, was used as a positive control. The virus was inhibited by mixing with the solution of tested compounds (20 μM in DMSO). After 30 min, the mixture was inoculated on the left side of the leaves of N. glutinosa, whereas the right side of the leaves was inoculated with the mixture of DMSO solution with the virus as control. The local lesion numbers were recorded 3–4 days after inoculation. Three repetitions were conducted for each compound. The inhibition rates were calculated according to the formula: inhibition rate (%) = [(C − T)/C] × 100%(1) where C is the average number of local lesions of the control and T is the average number of local lesions of the treatment. Ningnanmycin (20 μM in DMSO), a commercial virucide for plant disease in China, was used as a positive control.

The nature of data set [2]: Cytotoxicity in MA-104 cells (MTT). It counts as cell-based. As to conditions: African green monkey. As to the method:
(§1) The anti rotavirus activities were tested according to our previous literature. Human rotavirus Wa group was used to infect the cell culture MA104 in vitro, the 50% cytotoxicity concentration (CC50) and half maximal effective concentration (EC50) were evaluated, and ribavirin (C8H12N4O5, CAS No. […], a broad-spectrum antiviral drug) was used as a positive control. MA-104 cells (1 × 10^5 cells per well) were grown in 96-well plates for 48 h. The media were removed and replaced by new media containing serial dilutions of compounds under test. After incubation for 72 h, the media were discarded, and 5.0 μL of MTT solution was added to each well. Plates were then incubated at 37 °C for 4 h. The solution was removed, and 100 μL of 0.04 mol/L HCl-isopropanol was added to each well to dissolve formazan crystals. Using a microplate reader, the absorbance of each well was measured at 540 nm. After subtracting the background absorbance at 655 nm, the 50% CC50 of each compound was estimated by regression analysis.

For a further data set, the system named is Human rotavirus Wa group. Kind of data set: Anti-rotavirus assay, prevention of cytopathic effect in MA104 cells (mixed treatment). Format: cell-based. As to conditions: for EC50: Human rotavirus, MA104, rotavirus 0.01 MOI, MA-104 cells, 72 h, CPE; for TI (CC50/EC50): therapeutic index. Here is the method:
In order to study whether the chromones and indole alkaloids from the stem bark of C. alata had more broad antiviral activities, compounds 1–5 were also tested for their anti-rotavirus activity. Their ability to prevent the cytopathic effects of rotavirus in MA104 cells was tested according to our previous literatures, and their effects were measured in parallel with the determination of antiviral activity using ribavirin as a positive control.
as §1
In the mixed treatment assay, each compound was mixed with a 0.01 multiplicity of infection (MOI) of the rotaviruses at various concentrations (1–160 μg/mL) and incubated at 4 °C for 1 h. The mixtures were inoculated in triplicates onto near confluent MA-104 cell monolayers (1 × 10^5 cells per well) for 1 h with occasional rocking. The solution was removed, and the cells were replaced with eagles minimum essential medium (EMEM) containing 1 μg/mL trypsin. […] EC50 was estimated by regression analysis.
A general note: Protection from cytopathic effect is a common read-out in antiviral testing.

Another data set deals with TMV. Kind of data set: Protective effect on TMV (pretreatment of tobacco plant before inoculation). As to conditions: Tobacco mosaic virus; tobacco plant pretreated with 20 μM solution for 6 h before inoculation with TMV; read-out: protective effect inhibition rate. Format: in vivo. Here is the method:
For compounds with significant activities in half-leaf method assays, their protective effects on TMV were also evaluated by pretreating a tobacco plant with 20 μM solutions of compounds in DMSO, or a solution of DMSO for 6 h before inoculation with TMV.

For the molecule `COc1cc(C)cc2c1CN(C)C2=O` [Compound 1, 4-Methoxy-2,6-dimethylisoindolin-1-one], in data set [1], the concentration for half-maximal inhibition (IC50) turned out to be 55.3 µM and the inhibition at 20 µM is 26.5 ± 2.8%. In addition, the cytotoxic concentration (CC50) at 72 h in data set [2] is 142 µg/mL (≈ 745 µM). In the data set on Human rotavirus Wa group, a half-maximal response (EC50) required 14.6 µg/mL (≈ 76.3 µM) and the “TI (CC50/EC50)” value was 9.75.

`COc1cc(CO)cc2c1CN(C)C2=O` [Compound 2, 6-(Hydroxymethyl)-4-methoxy-2-methylisoindolin-1-one]: in data set [1], the half-inhibitory concentration (IC50) was determined as 22.6 µM and the inhibition at 20 µM is 44.4 ± 3.5%. In addition, the inhibition at 20 µM in the data set with TMV is 40.8%. Moreover, the CC50 at 72 h in data set [2] came out at 175 µg/mL (≈ 845 µM). In the data set with Human rotavirus Wa group, the EC50 was 14.8 µg/mL (≈ 71.4 µM) and the “TI (CC50/EC50)” value is on record as 11.8.

Regarding `COc1cc(CCCO)cc2c1CN(C)C2=O` [Compound 3, 6-(3-Hydroxypropyl)-4-methoxy-2-methylisoindolin-1-one], in data set [1], the IC50 worked out at 14.2 µM and the inhibition at 20 µM is 66.5 ± 4%. Moreover, the inhibition at 20 µM in the data set on TMV amounted to 68.2%. In addition, the CC50 at 72 h in data set [2] came to 208 µg/mL (≈ 885 µM). Further, in the data set on Human rotavirus Wa group, the half-maximal effective concentration (EC50) was determined as 13.6 µg/mL (≈ 57.8 µM) and the “TI (CC50/EC50)” value turned out to be 15.3.

For the molecule `CC(=O)Cc1c(CO)ccc2c1OC(C)(C)CC2=O` [Compound 4, 7-(Hydroxymethyl)-2,2-dimethyl-8-(2-oxopropyl)chroman-4-one], in data set [1], the IC50 was found to be 17.9 µM and the inhibition at 20 µM stood at 52.3 ± 3.6%. The inhibition at 20 µM in the data set with TMV came to 49.3%. Also, the CC50 at 72 h in data set [2] came to 192 µg/mL (≈ 734 µM). In addition, in the data set with Human rotavirus Wa group, the EC50 came out at 15.5 µg/mL (≈ 59.1 µM) and the “TI (CC50/EC50)” value is on record as 12.4.

As for `COc1cc(C)cc2c1CN(Cc1ccc3c(c1CC(C)=O)OC(C)(C)CC3=O)C2=O` [Compound 5, 2-((3,4-Dihydro-2,2-dimethyl-4-oxo-8-(2-oxopropyl)-2H-chromen-7-yl)methyl)-4-methoxy-6-methyl-isoindolin-1-one], in data set [1], half-maximal inhibition (IC50) was put at 43.4 µM and the inhibition at 20 µM was found to be 31.8 ± 3.3%. For the same molecule, half-maximal cytotoxicity in data set [2] (CC50 at 72 h) was put at 154 µg/mL (≈ 364 µM). In the data set on Human rotavirus Wa group, the EC50 stood at 12.8 µg/mL (≈ 30.4 µM) and the “TI (CC50/EC50)” value was 12.0.

Take `CNCC(=O)N[C@@H](CO)C(=O)N[C@H]1[C@H](O)[C@@H](O)[C@H](n2ccc(N)nc2=O)O[C@@H]1C(N)=O` [Ningnanmycin, reference compound]: in data set [1], the IC50 amounted to 37.2 µM and the inhibition at 20 µM is 32.8 ± 3%.

Turning to `NC(=O)c1ncn([C@@H]2O[C@H](CO)[C@@H](O)[C@H]2O)n1` [Ribavirin, reference compound], in data set [2] (MA-104 cells, 72 h, MTT, read-out: CC50), the CC50 at 72 h amounted to 234 µg/mL (≈ 960 µM). Moreover, in the data set with Human rotavirus Wa group, the EC50 worked out at 12.2 µg/mL (≈ 50 µM) and the “TI (CC50/EC50)” value is 19.2.
